Values quoted from earlier work, collected in US6682761B2, “Water-insoluble drug particle process” (RTP Pharma, Inc., priority 2000, dated 2004).

Settings: in vivo

plasma half-life: about 20 hours
SMILES: CC(C)(Oc1ccc(C(=O)c2ccc(Cl)cc2)cc1)C(=O)O [Fenofibric acid]
